Publication PMC4569058, “High-Throughput Screening for Ligands of the HEPN Domain of Sacsin” (PLoS ONE, 2015)
“And” between values parts separate entries of the source, which are not always exact repeats. Equal entries are not always repeated.

Legend:
Format in all cases: binding
[1] = target: T1, HEPN domain of sacsin (GST-HEPN) (Homo sapiens, UniProt Q9NZJ4); test: FP competition assay (displacement of F12-ATP from GST-HEPN)
T1 construct: The HEPN domain (residues 4441–4579) was purified as in Kozlov et al; made in house; host or cells: E. coli BL21
T1 sequence (Q9NZJ4 4441-4579): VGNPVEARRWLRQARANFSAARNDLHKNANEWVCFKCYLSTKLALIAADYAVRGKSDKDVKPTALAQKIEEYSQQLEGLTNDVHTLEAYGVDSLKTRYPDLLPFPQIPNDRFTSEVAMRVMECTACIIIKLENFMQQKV
Experimental: […] The probe concentration was chosen to be the minimum concentration required to generate a sigmoidal binding curve. […] Next, a serial dilution of the competitor compounds (nucleotides and nucleotide analogs) starting at 10 mM were added. The fluorescence polarization signal in each well was measured on a SpectraMax M5e Microplate Reader.

[2] = target: T2, 15N-HEPN (sacsin HEPN domain) (Homo sapiens, UniProt Q9NZJ4); test: 1H-15N HSQC NMR titration; details: 100-400 μM 15N-HEPN, 20 mM Bis-tris pH 6.50, 70 mM NaCl, 303 K
T2 construct: The HEPN domain (residues 4441–4579) was purified as in Kozlov et al; GST (N, cleaved yes); made in house; host or cells: E. coli BL21 (M9 minimal medium with 15NH4Cl)
T2 sequence (Q9NZJ4 4441-4579): T1 sequence (Q9NZJ4 4441-4579)
Experimental: Between 100 μM and 400 μM ^15N-HEPN were used for NMR titration experiments. Heteronuclear single quantum correlation (HSQC) spectra were acquired in 20 mM Bis-tris pH 6.50 and 70 mM NaCl at 303 K using Varian 800 MHz or Bruker 600 MHz NMR spectrometers. The data were processed by NMRPipe. NMR spectra were then generated and analyzed by NMRView. The 2D HSQC spectra were overlaid with previously assigned spectrum of HEPN. The combined chemical shift perturbations in the ^1H and ^15N dimensions of each peak, calculated as (ΔδH ^2 + (0.2 × ΔδN)^2)^0.5, were plotted against the residue number.

[3] = target: T1, HEPN domain of sacsin (GST-HEPN); test: FP titration assay (fluorescent ATP probe vs GST-HEPN); details: for Kd: 20 mM Bis-tris pH 6.50, 100 mM NaCl
Experimental: N-methylanthraniloyl 8[(4-amino)butyl]-amino-ATP (MABA-ATP) and fluorescein-12-ATP (F12-ATP) were purchased from Jena Bioscience and PerkinElmer, respectively. The excitation and emission wavelengths of MABA-ATP were reported to be 335 nm and 440 nm, and those of F12-ATP were reported to be 496 nm and 517 nm by the commercial suppliers. The optimal excitation and emission wavelengths were determined under FP assay conditions using 0.2 μM MABA-ATP and 3.3 nM F12-ATP in 100 mM NaCl, 20 mM Bis-tris, pH 6.5.
(§1) A fixed concentration of the probe (0.5 μM MABA-ATP or 5 nM F12-ATP) was put in each well followed by a serial dilution of GST-HEPN starting at 10 μM. The assay was conducted in 20 mM Bis-tris pH 6.50 and 100 mM NaCl and the final volume in each well was 100 μl. The total fluorescence and fluorescence polarization signals of each well were recorded on a SpectraMax M5e Microplate Reader at the optimal excitation and emission wavelengths of the probes. A titration curve was generated by plotting the fluorescence polarization signals as milli-polarization units (mP) against a log scale of GST-HEPN concentration (μM).

[4] = target: GST (Schistosoma japonicum, UniProt P08515); test: GST control FP titration; details: 0.5 μM MABA-ATP or 5 nM F12-ATP titrated against GST
GST, sequence (P08515 whole entry): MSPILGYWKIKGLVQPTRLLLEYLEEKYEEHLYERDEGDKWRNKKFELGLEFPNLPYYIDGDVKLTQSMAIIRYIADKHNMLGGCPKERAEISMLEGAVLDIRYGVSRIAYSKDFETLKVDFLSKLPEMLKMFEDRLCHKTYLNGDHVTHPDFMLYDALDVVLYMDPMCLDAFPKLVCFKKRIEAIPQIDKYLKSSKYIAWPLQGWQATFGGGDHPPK
Experimental: as §1
Supplementary file pone.0137298.s002.tif: S2 Fig GST control titration. 0.5 μM MABA-ATP and 5 nM F12-ATP were titrated against various concentrations of GST to verify whether GST contributes to the observed FP signal in the presence of GST-HEPN. […] (TIF) Click here for additional data file.

[5] = 5 nM F12-ATP and 120 nM GST-HEPN, read-out: affinity for GST-HEPN estimated from FP competition curve, Kd
[6] = HTS hit confirmation, 5 nM F12-ATP and 200 nM GST-HEPN, read-out: Binding Affinity for HEPN

Compound	Kd [1, 5]	binding to HEPN observed by NMR (chemical shift perturbations) [2]	other results
Nc1ncnc2c1ncn2[C@@H]1O[C@H](COP(=O)(O)OP(=O)(O)O)[C@@H](O)[C@H]1O [ADP, adenosine 5´-diphosphate]	19.2 µM		
Nc1ncnc2c1ncn2C1OC(COP(=O)(O)OP(=O)(O)OCC2OC(O)C(O)C2O)C(O)C1O (stereo not drawn) [ADP-ribose, adenosine 5´-diphosphoribose]	205 µM		
O=C(OCCCl)Oc1c(Br)cc2sc(=O)oc2c1Br [AG205]			Kd [1, 6]: 9.4 µM
Cc1ccccc1NS(=O)(=O)c1ccc(NC(=O)c2n[nH]c([N+](=O)[O-])c2Br)cc1 [AK968]		Binding was observed by NMR	Kd [1, 6]: 2.1 µM
Nc1ncnc2c1ncn2[C@@H]1O[C@H](COP(=O)(O)O)[C@@H](O)[C@H]1O [AMP, adenosine 5´-monophosphate]	102 µM		
O=C(Nc1cccc2c(=O)[nH][nH]c(=O)c12)c1ccc(=O)oc1 [AN652]		Binding was observed by NMR	Kd [1, 6]: 2.8 µM
O=c1c(C(c2ccc3c(c2)OCO3)c2c(O)nc3n(c2=O)CCS3)c(O)nc2n1CCS2 [AN670]		Binding was observed by NMR	fold higher affinity than the other two HTS hits AK968 and AN652 [1]: two- to three-fold; Kd [1, 6]: 1.1 µM
Nc1ncnc2c1ncn2[C@@H]1O[C@H](COP(=O)(O)OP(=O)(O)OP(=O)(O)OC[C@H]2O[C@@H](n3cnc4c(N)ncnc43)[C@H](O)[C@@H]2O)[C@@H](O)[C@H]1O [Ap3A, p1, p3-di(adenosine-5´) triphosphate]	51.2 µM		
Nc1ncnc2c1ncn2[C@@H]1O[C@H](COP(=O)(O)OP(=O)(O)OP(=O)(O)OP(=O)(O)OC[C@H]2O[C@@H](n3cnc4c(N)ncnc43)[C@H](O)[C@@H]2O)[C@@H](O)[C@H]1O [Ap4A, p1,-p4-di(adenosine-5´) tetraphosphate]	20.5 µM		
CC(C)(COP(=O)(O)OP(=O)(O)OC[C@H]1O[C@@H](n2cnc3c(N)ncnc32)[C@H](O)[C@@H]1OP(=O)(O)O)[C@@H](O)C(=O)NCCC(=O)NCCS [CoA, coenzyme A]	5.2 µM		
O=C(O)CN(CCN(CC(=O)O)CC(=O)O)CC(=O)O [EDTA]	~510 µM and 510 µM	interacts with GTP- and malonate ion-binding site	fold weaker affinity than GTP [1]: ~ 500 fold
Nc1nc2c(ncn2[C@@H]2O[C@H](COP(=O)(O)OP(=O)(O)OP(=O)(O)OP(=O)(O)O)[C@@H](O)[C@H]2O)c(=O)[nH]1 [G-tetra-P, guanosine 5´-tetraphosphate]	0.47 µM	Changes in chemical shifts were observed for most GTP-binding residues	fold higher affinity for HEPN than GTP [1]: about two-fold
Nc1nc2c(ncn2[C@@H]2O[C@H](COP(=O)(O)OP(=O)(O)O)[C@@H](O)[C@H]2O)c(=O)[nH]1 [GDP, guanosine 5´-diphosphate]	1.23 µM		
Nc1nc2c(ncn2[C@@H]2O[C@H](COP(=O)(O)OP(=O)(O)OP(=O)(O)O)[C@@H](O)[C@H]2O)c(=O)[nH]1 [GTP, guanosine 5´-triphosphate]	0.81 µM	binds to HEPN at its dimerization surface	fold higher affinity relative to ATP [1]: approximately 6 fold
Nc1nc2c(ncn2[C@@H]2O[C@H](COP(=O)(O)OP(=O)(O)OP(=O)(O)OP(=O)(O)OC[C@H]3O[C@@H](n4cnc5c(=O)[nH]c(N)nc54)[C@H](O)[C@@H]3O)[C@@H](O)[C@H]2O)c(=O)[nH]1 [Gp4G, p1, p4-di(guanosine-5´) tetraphosphate]	1.23 µM		
O=P(O)(O)OC1C(OP(=O)(O)O)C(OP(=O)(O)O)C(OP(=O)(O)O)C(OP(=O)(O)O)C1OP(=O)(O)O (stereo not drawn) [IP6, phytic acid/myo-inositol hexakis(dihydrogen phosphate)]	8.46 µM		
CNc1ccccc1C(=O)NCCCCNc1nc2c(N)ncnc2n1[C@@H]1O[C@H](COP(=O)(O)OP(=O)(O)OP(=O)(O)O)[C@@H](O)[C@H]1O [MABA-ATP, N-methylanthraniloyl 8[(4-amino)butyl]-amino-ATP]			Kd ([3]; 0.5 μM MABA-ATP titrated against GST-HEPN, read-out: binding affinity of the probe estimated from the titration curve): ~3 µM and 3 µM; binding of probe to GST alone [4]: did not show binding
fluorescein-12-ATP [F12-ATP]		interacts with all HEPN residues involved in GTP-binding	Kd ([3]; 5 nM F12-ATP titrated against GST-HEPN, read-out: binding affinity of the probe estimated from the titration curve (KD1)): 0.078 µM and ~0.078 µM; fold decrease in affinity upon the addition of MgCl2 ([3]; F12-ATP vs GST-HEPN titration in the presence of 1 mM MgCl2 compared to without MgCl2): 10 fold; fold higher affinity relative to ATP [1]: 65 fold; binding of probe to GST alone [4]: did not show binding
